# Publication PMC8894198, “Biosynthetic Microcin J25 Exerts Strong Antibacterial, Anti-Inflammatory Activities, Low Cytotoxicity Without Increasing Drug-Resistance to Bacteria Target” (Frontiers in Immunology, 2022)
# Values joined by “and” are separate entries in the source; they are usually repeats but may differ in a detail not shown here. Equal values may be shown once. Where a SMILES comes first, the peptide text is derived from it. Bridges are numbered along the chain shown (N, C = ends).
# Tests used:
# E. coli 521ZQE = format: cell-based; conditions: source pig tissue, three independent experiments
# Protocol: (§1) The minimum inhibitory concentration (MIC) refers to the lowest concentration that can produce a significant hindrance to bacterial growth in a drug sensitivity test by adopting a broth dilution, with certain refinements and modifications based on the previous description ([25], [26]). In short, MccJ25 was dissolved in sterilized distilled water (SDW), serial 2-fold dilutions were prepared in Mueller-Hinton broth (MHB) through a 96-well microtiter plate, and the final concentration of MccJ25 was maintained in the range of 0.003125 to 256 μg/mL. Then, 2 μL of standard and clinically relevant overnight broth cultures of bacteria were inoculated into each well at a concentration of 5 × 10^6 CFU/mL. Microtiter plates were incubated at 37°C for one full day. Two groups were set up: positive (medium with inoculum) and negative (medium only) controls. The minimum bactericidal concentration (MBC) was measured in LB medium and refers to the first drug dilution value at which the initial bacterial concentration was reduced by 99.99%. The final analysis was determined by the results of three replicated and independent experiments. To further assess and clarify the antimicrobial activity of MccJ25, the protective ability against E. coli adhesion, live/dead assay, and killing curve were performed, the detailed methods were provided in Supplementary Materials .
# E. coli 987P = format: cell-based
# Protocol: as §1
# E. coli AZ1 = format: cell-based; conditions: source pig tissue
# Protocol: as §1
# E. coli BRO 134 = format: cell-based; conditions: source broiler stool
# Protocol: as §1
# E. coli BRO 477 = format: cell-based; conditions: source broiler stool
# Protocol: as §1
# E. coli CATT921A-1 = format: cell-based; conditions: source mastitis pathogens
# Protocol: as §1
# E. coli CVCC1522 = format: cell-based
# Protocol: as §1
# E. coli CVCC1543 = format: cell-based
# Protocol: as §1
# E. coli K88 = format: cell-based
# Protocol: as §1
# E. coli K99 = format: cell-based
# Protocol: as §1
# E. coli LKFZ F2 = format: cell-based; conditions: source pig stool
# Protocol: as §1
# E. coli SWI 437 = format: cell-based; conditions: source pig stool
# Protocol: as §1
# E. coli SWI 535 = format: cell-based; conditions: source pig tissue
# Protocol: as §1
# E. coli WWE921A-2 = format: cell-based; conditions: source pig tissue
# Protocol: as §1
# Salmonella CATT LX1 = format: cell-based; conditions: source mastitis pathogens
# Protocol: as §1
# Salmonella CATT LX2 = format: cell-based; conditions: source mastitis pathogens
# Protocol: as §1
# Salmonella CATT LX5 = format: cell-based; conditions: source mastitis pathogens
# Protocol: as §1
# Salmonella CATT LX9 = format: cell-based; conditions: source mastitis pathogens
# Protocol: as §1
# Salmonella CATT W14 = format: cell-based; conditions: source mastitis pathogens
# Protocol: as §1
# E. coli 1499 = assay: MIC/MBC broth dilution, standard strain; format: cell-based
# Protocol: as §1
# E. coli ATCC25922 = assay: MIC/MBC broth dilution, standard strain; format: cell-based
# Protocol: as §1
# E. coli CVCC1515 = assay: MIC/MBC broth dilution, standard strain; format: cell-based
# Protocol: as §1
# [1] = system: Salmonella enteritidis CMCC50336; assay: MIC/MBC broth dilution, standard strain; format: cell-based
# Protocol: as §1
# [2] = system: Shigella flexneri CMCC51571; assay: MIC/MBC broth dilution, standard strain; format: cell-based; conditions: LB medium, 99.99% reduction; three independent experiments
# Protocol: as §1
# S. pullorum CVCC1791 = assay: MIC broth dilution, standard strain; format: cell-based, Salmonella pullorum; conditions: lowest MIC value, highly sensitive standard strain
# Protocol: as §1
# [3] = LPS neutralization, chromogenic limulus amebocyte lysate assay; format: biochemical, E. coli; conditions: 8 μg/mL MccJ25, LPS 1 EU/mL, 37°C, A405
# Protocol: The neutralizing impacts of MccJ25 on LPS were assessed according to a color-emitting […] assay. Levels of E. coli LPS (1 EU/mL) were prepared and combined with various concentrations of MccJ25 (1 to 128 µg/mL) and inoculated in the wells of sterile microtiter plates at 37°C. Then, 50 μL of the above mixture was extracted, the same volume of […] reagent was added, and the mixture was incubated for 10 min at 37°C. […] The reaction was finished by adding 25% acetic acid, and finally, its absorbance value at 405 nm was measured.
# [4] = LB medium, 99.99% reduction, three independent experiments
# [5] = broth dilution in MHB, 37°C, one day, three independent experiments
# [6] = broth dilution in MHB, 37°C, three independent experiments
compound,measurement,setting,value
"CC[C@H](C)[C@H](NC(=O)CNC(=O)[C@@H](NC(=O)[C@H](Cc1ccccc1)NC(=O)[C@H](Cc1ccc(O)cc1)NC(=O)[C@@H]1CCC(=O)NCC(=O)NCC(=O)N[C@@H](C)C(=O)NCC(=O)N[C@@H](Cc2c[nH]cn2)C(=O)N[C@@H](C(C)C)C(=O)N2CCC[C@H]2C(=O)N1)C(C)C)C(=O)NCC(=O)N[C@H](C(=O)N1CCC[C@H]1C(=O)N[C@H](C(=O)N[C@@H](CO)C(=O)N[C@@H](Cc1ccccc1)C(=O)N[C@@H](Cc1ccc(O)cc1)C(=O)NCC(=O)O)[C@@H](C)CC)[C@@H](C)O [MccJ25, microcin J25] (GGAGHVPEYFVGIGTPISFYG-OH; lactam N-8 (inferred); C-terminus assumed)",MBC,"E. coli 521ZQE; LB medium, 99.99% reduction",2.000 µg/mL
same,MIC,"E. coli 521ZQE; broth dilution in MHB, 37°C",0.250 µg/mL
same,MBC,E. coli 987P; [4],0.500 µg/mL
same,MIC,E. coli 987P; [5],0.030 µg/mL
same,MIC/MBC,E. coli 987P; ratio,0.060
same,MBC,E. coli AZ1; [4],1.000 µg/mL
same,MIC,E. coli AZ1; [6],0.500 µg/mL
same,MIC/MBC,E. coli AZ1; ratio,0.500
same,MBC,E. coli BRO 134; [4],2.000 µg/mL
same,MIC,E. coli BRO 134; [6],0.250 µg/mL
same,MIC/MBC,E. coli BRO 134; ratio,0.125
same,MBC,E. coli BRO 477; [4],1.000 µg/mL
same,MIC,E. coli BRO 477; [6],0.500 µg/mL
same,MIC/MBC,E. coli BRO 477; ratio,0.500
same,MBC,E. coli CATT921A-1; [4],2.000 µg/mL
same,MIC,E. coli CATT921A-1; [6],0.250 µg/mL
same,MIC/MBC,E. coli CATT921A-1; ratio,0.125
same,MBC,E. coli CVCC1522; [4],0.500 µg/mL
same,MIC,E. coli CVCC1522; [5],0.03 µg/mL and 0.030 µg/mL
same,MIC/MBC,E. coli CVCC1522; ratio,0.060
same,MBC,E. coli CVCC1543; [4],0.250 µg/mL
same,MIC,E. coli CVCC1543; [5],0.03 µg/mL and 0.030 µg/mL
same,MIC/MBC,E. coli CVCC1543; ratio,0.120
same,MBC,E. coli K88; [4],0.500 µg/mL
same,MIC,E. coli K88; [5],0.250 µg/mL
same,MIC/MBC,E. coli K88; ratio,0.500
same,MBC,E. coli K99; [4],0.250 µg/mL
same,MIC,E. coli K99; [5],0.030 µg/mL
same,MIC/MBC,E. coli K99; ratio,0.120
same,MBC,E. coli LKFZ F2; [4],0.500 µg/mL
same,MIC,E. coli LKFZ F2; [6],0.250 µg/mL
same,MIC/MBC,E. coli LKFZ F2; ratio,0.500
same,MBC,E. coli SWI 437; [4],0.250 µg/mL
same,MIC,E. coli SWI 437; [6],0.030 µg/mL
same,MIC/MBC,E. coli SWI 437; ratio,0.120
same,MBC,E. coli SWI 535; [4],2.000 µg/mL
same,MIC,E. coli SWI 535; [6],0.500 µg/mL
same,MIC/MBC,E. coli SWI 535; ratio,0.250
same,MBC,E. coli WWE921A-2; [4],2.000 µg/mL
same,MIC,E. coli WWE921A-2; [6],1.000 µg/mL
same,MIC/MBC,E. coli WWE921A-2; ratio,0.500
same,MBC,Salmonella CATT LX1; [4],0.250 µg/mL
same,MIC,Salmonella CATT LX1; [6],0.060 µg/mL
same,MIC/MBC,Salmonella CATT LX1; ratio,0.240
same,MBC,Salmonella CATT LX2; [4],0.125 µg/mL
same,MIC,Salmonella CATT LX2; [6],0.030 µg/mL
same,MIC/MBC,Salmonella CATT LX2; ratio,0.240
same,MBC,Salmonella CATT LX5; [4],0.125 µg/mL
same,MIC,Salmonella CATT LX5; [6],0.030 µg/mL
same,MIC/MBC,Salmonella CATT LX5; ratio,0.240
same,MBC,Salmonella CATT LX9; [4],0.125 µg/mL
same,MIC,Salmonella CATT LX9; [6],0.060 µg/mL
same,MIC/MBC,Salmonella CATT LX9; ratio,0.480
same,MBC,Salmonella CATT W14; [4],0.250 µg/mL
same,MIC,Salmonella CATT W14; [6],0.060 µg/mL
same,MIC/MBC,Salmonella CATT W14; ratio,0.240
same,MBC,E. coli 1499; [4],1.000 µg/mL
same,MIC,E. coli 1499; [5],0.400 µg/mL
same,MIC/MBC,E. coli 1499; ratio,0.400
same,MBC,E. coli ATCC25922; [4],0.500 µg/mL
same,MIC,E. coli ATCC25922; [5],0.125 µg/mL
same,MIC/MBC,E. coli ATCC25922; ratio,0.250
same,MBC,E. coli CVCC1515; [4],2.000 µg/mL
same,MIC,E. coli CVCC1515; [5],0.500 µg/mL
same,MIC/MBC,E. coli CVCC1515; ratio,0.250
same,MBC,[1]; [4],4.000 µg/mL
same,MIC,[1]; [5],2.000 µg/mL
same,MIC/MBC,[1]; ratio,0.500
same,MBC,[2],0.500 µg/mL
same,MIC,S. pullorum CVCC1791,0.03 µg/mL
same,LPS neutralization,[3],92.59%
